20 molecules from patent US8871796B2, “Diaryl ether derivatives as notch sparing gamma secretase inhibitors” (Merck Sharp & Dohme Corp., priority 2009, dated 2014) can be followed below.

Read-outs that look alike come from different tables or passages of the source.

By IC50 is commonly meant the concentration that inhibits the measured activity by half.

The assay is described as follows: APP processing: AlphaLisa assay of secreted Aβ40 and Aβ42 from SP4CT cells. As to conditions: Homo sapiens, SH-SY5Y cells expressing amyloid β protein (SP4CT cells). The assay is classed as cell-based. An outline of the steps:
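Media from compound-treated SP4CT cells (SH-SY5Y expressing amyloid β protein) was assayed by AlphaLisa. Donor beads carried biotinylated 4G8 anti-Aβ antibody; acceptor beads carried G210 (Aβ40) or 12F4 (Aβ42) in separate plates, with luminescence proportional to peptide abundance.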
For orientation: In Alpha technology, singlet oxygen from a donor bead excites a nearby acceptor bead.

The mark [1] stands for this setting: read-out: IC50, inhibition of production of Aβ40 peptide.
Setting [2] is: read-out: IC50, inhibition of production of Aβ42 peptide.

`CCn1nc(-c2cccc(C(C)(C)NS(=O)(=O)CC(F)(F)F)c2)cc1Oc1ccc(CF)cc1` [Example 63, N-[1-(3-{1-ethyl-5-[4-(fluoromethyl)phenoxy]-1H-pyrazol-3-yl}phenyl)-1-methylethyl]-2,2,2-trifluoroethanesulfonamide]: the IC50 was less than 200 nM under setting [1] and less than 200 nM under setting [2].
As to `CCn1nc(-c2cccc(C(C)(C)NS(=O)(=O)CC(F)(F)F)c2)cc1Oc1ccc(C(O)C(F)(F)F)cc1` (stereo not shown) [Example 71, N-[1-(3-{1-ethyl-5-[4-(2,2,2-trifluoro-1-hydroxyethyl)phenoxy]-1H-pyrazol-3-yl}phenyl)-1-methylethyl]-2,2,2-trifluoroethanesulfonamide], the concentration for half-maximal inhibition (IC50) by setting is: under setting [1], less than 200 nM; under setting [2], less than 200 nM.
`CCn1nc(-c2cccc(C3(NS(=O)(=O)CC(F)(F)F)CC3)c2)cc1Oc1ccc(C(F)(F)F)cn1` [Example 44, N-{1-[3-(1-ethyl-5-{[5-(trifluoromethyl)pyridin-2-yl]oxy}-1H-pyrazol-3-yl)phenyl]cyclopropyl}-2,2,2-trifluoroethanesulfonamide]: the IC50 by setting is: under setting [1], less than 200 nM; under setting [2], less than 200 nM.
Consider `CCn1nc(-c2cncc(C3(NS(=O)(=O)NCC(F)(F)F)COC3)c2)cc1Oc1ccc(C(F)(F)F)cc1` [Example 127, N-[3-(5-{1-ethyl-5-[4-(trifluoromethyl)phenoxy]-1H-pyrazol-3-yl}pyridine-3-yl)oxetan-3-yl]-N′-(2,2,2-trifluoroethyl)sulfamide], for which the IC50 was less than 200 nM under setting [1] and less than 200 nM under setting [2].
For the molecule `CCn1nc(-c2cccc(C3(NS(=O)(=O)NCC(C)C)CC3)c2)cc1Oc1ccc(C(F)(F)F)cc1` [Example 47, N-[1-(3-{1-ethyl-5-[4-(trifluoromethyl)phenoxy]-1H-pyrazol-3-yl}phenyl)cyclopropyl]-N′-isobutylsulfamide], the IC50 is less than 200 nM under setting [1] and less than 200 nM under setting [2].
In the case of `CCn1nc(Oc2ccc(C(F)(F)F)cc2)cc1-c1ccc2c(c1)CC(NS(=O)(=O)NCC(C)C)C2` (stereo not shown) [Example 124, N-(5-{1-ethyl-3-[4-(trifluoromethyl)phenoxy]-1H-pyrazol-5-yl}-2,3-dihydro-1H-inden-2-yl)-N′-isobutylsulfamide], the IC50 is, setting by setting: under setting [1], less than 200 nM; under setting [2], less than 200 nM.
Take `CCn1nc(Oc2ccc(C(F)(F)F)cc2)c(Cl)c1-c1cccc(C(C)(C)NS(=O)(=O)CC(F)(F)F)c1` [Example 113, N-[2-(3-{4-chloro-1-ethyl-3-[4-(trifluoromethyl)phenoxy]-1H-pyrazol-5-yl}phenyl)propan-2-yl]-2,2,2-trifluoroethanesulfonamide]: the IC50 is, setting by setting: under setting [1], less than 200 nM; under setting [2], less than 200 nM.
For the molecule `CCn1nc(-c2cccc(C(C)(C)NS(=O)(=O)CC(F)(F)F)c2)cc1Oc1ccc(CNCc2cccnc2)cc1` [Example 94, N-(1-{3-[1-ethyl-5-(4-{[(pyridin-3-ylmethyl)amino]methyl}phenoxy)-1H-pyrazol-3-yl]phenyl}-1-methylethyl)-2,2,2-trifluoroethanesulfonamide], the IC50 under setting [1] was less than 200 nM and the IC50 under setting [2] is less than 200 nM.
For the molecule `CCn1nc(-c2cccc(C(C)(C)NS(=O)(=O)CC(F)(F)F)c2)cc1Oc1ccc(-c2cnco2)cc1` [Example 76, N-[1-(3-{1-ethyl-5-[4-(1,3-oxazol-5-yl)phenoxy]-1H-pyrazol-3-yl}phenyl)-1-methylethyl]-2,2,2-trifluoroethanesulfonamide], the IC50 is, setting by setting: under setting [1], less than 200 nM; under setting [2], less than 200 nM.
As for `CCCNS(=O)(=O)NC(C)(C)c1cccc(-c2cc(Oc3ccc(C(F)(F)F)cc3)nn2CC)c1` [Example 23, N-[1-(3-{1-ethyl-3-[4-(trifluoromethyl)phenoxy]-1H-pyrazol-5-yl}phenyl)-1-methylethyl]-N′-propylsulfamide], the IC50 runs as follows: under setting [1], less than 200 nM; under setting [2], less than 200 nM.
On to `CCn1nc(-c2ccc3c(c2)CC(NS(=O)(=O)NCC(F)(F)F)C3)cc1Oc1ccc(C(F)(F)F)cc1` (stereo not shown) [Example 121], for which the IC50 under setting [1] is less than 200 nM and the IC50 under setting [2] is less than 200 nM.
Consider `CCn1nc(Oc2ccc(C(F)(F)F)cc2)cc1-c1cccc(C(C)(C)NS(=O)(=O)NC)c1` [Example 24, N-[1-(3-{1-ethyl-3-[4-(trifluoromethyl)phenoxy]-1H-pyrazol-5-yl}phenyl)-1-methylethyl]-N′-methylsulfamide], for which the IC50 under setting [1] was less than 200 nM and the IC50 under setting [2] was less than 200 nM.
`CCn1nc(Oc2ccc(C(F)(F)F)cc2)cc1-c1ccc2c(c1)CC(NS(=O)(=O)NC1CCC1)C2` (stereo not shown) [Example 125, N-cyclobutyl-N′-(5-{1-ethyl-3-[4-(trifluoromethyl)phenoxy]-1H-pyrazol-5-yl}-2,3-dihydro-1H-inden-2-yl)sulfamide]: the IC50 under setting [1] is less than 200 nM and the IC50 under setting [2] was less than 200 nM.
Regarding `CC(C)(NS(=O)(=O)CC(F)(F)F)c1cccc(-c2cc(Oc3ccc(C(F)(F)F)cc3)n(CCO)n2)c1` [Example 105, 2,2,2-trifluoro-N-[1-(3-{1-(2-hydroxyethyl)-5-[4-(trifluoromethyl)phenoxy]-1H-pyrazol-3-yl}phenyl)-1-methylethyl]ethanesulfonamide], the concentration for half-maximal inhibition (IC50) was less than 200 nM under setting [1] and less than 200 nM under setting [2].
For `CCn1nc(-c2cccc(C(C)(C)NS(=O)(=O)NC3CCCC3)c2)cc1Oc1ccc(C(F)(F)F)cc1` [Example 13, N-cyclopentyl-N′-[1-(3-{1-ethyl-5-[4-(trifluoromethyl)phenoxy]-1H-pyrazol-3-yl}phenyl)-1-methylethyl]sulfamide], the IC50 is less than 200 nM under setting [1] and less than 200 nM under setting [2].
`CCn1nc(-c2cccc(C(C)(C)NS(=O)(=O)CC(F)(F)F)c2)c(Cl)c1Oc1ccc(C(F)(F)F)cc1` [Example 112, N-[2-(3-{4-chloro-1-ethyl-5-[4-(trifluoromethyl)phenoxy]-1H-pyrazol-3-yl}phenyl)propan-2-yl]-2,2,2-trifluoroethanesulfonamide]: the IC50 reads like this: under setting [1], less than 200 nM; under setting [2], less than 200 nM.
`CCn1nc(-c2cccc(C(C)(C)NS(=O)(=O)CC(F)(F)F)c2)cc1Oc1ccc(C(F)(F)F)cc1F` [Example 5, N-[1-(3-{1-ethyl-5-[2-fluoro-4-(trifluoromethyl)phenoxy]-1H-pyrazol-3-yl}phenyl)-1-methylethyl]-2,2,2-trifluoroethanesulfonamide]: the IC50 is, setting by setting: under setting [1], less than 200 nM; under setting [2], less than 200 nM.
For `O=S(=O)(CC(F)(F)F)NC1(c2cccc(-c3cc(Oc4ccc(C(F)(F)F)cc4)n(CC4CCCO4)n3)c2)COC1` (stereo not shown) [Example 138, N-(3-{3-[5-(4-trifluoromethylphenoxy)-1-(tetrahydrofuran-2-ylmethyl)-1H-pyrazol-3-yl]phenyl}oxetan-3-yl)-2,2,2-trifluoroethanesulfonamide], the IC50 is less than 200 nM under setting [1] and less than 200 nM under setting [2].
Take `CCCNS(=O)(=O)NC(C)(C)c1cccc(-c2cc(Oc3ccc(C(F)(F)F)cc3)n(CC)n2)c1` [Example 8, N-[1-(3-{1-ethyl-5-[4-(trifluoromethyl)phenoxy]-1H-pyrazol-3-yl}phenyl)-1-methylethyl]-N′-propylsulfamide]: the IC50 runs as follows: under setting [1], less than 200 nM; under setting [2], less than 200 nM.
Regarding `CCn1nc(-c2cccc(C(C)(C)NS(=O)(=O)CC(F)(F)F)c2)cc1Oc1ccc(CNCc2ccccc2)cc1` [Example 79, N-{1-[3-(5-{4-[(benzylamino)methyl]phenoxy}-1-ethyl-1H-pyrazol-3-yl)phenyl]-1-methylethyl}-2,2,2-trifluoroethanesulfonamide], the IC50 was less than 200 nM under setting [1] and less than 200 nM under setting [2].
